Experimental data reported in patent publication US8575170B2, “Flurbiprofen analogs and methods of use in treating cancer” (The Regents of the Unversity of Colorado, a body corporate, priority 2010, dated 2013).
Like-named read-outs stand apart in the source and are kept apart here.

Assays:
[1] = tested on: H2122; assay: MTT cell viability, H2122 lung carcinoma cell line; type: cell-based; details: IC50 values for the H2122 lung carcinoma cell line, Table 5, read-out: H2122 In vitro
Procedure: The ability of the flurbiprofen analog compounds of the invention to inhibit cancer cell growth and survival (viability) in a variety of cancer lines was examined in a standard MTT assay for cell viability, as detailed in Example 2.
The IC50 values given in Tables 1-4 were measured using the B1031 ([…]) compound) shown in Section IIB above. To confirm the generality of the results with respect to other fluribprofen analogs prepared in accordance with the invention, IC50 values for the other 11 analog compounds given in Section IIB were similarly determined for the H2122 lung carcinoma cell line.
The studies reported in Tables 1-3 above were carried out by incubating the cells in the test compound for four days, under standard cell-culture conditions, and measuring cell survival on day 5 (see Example 2).
Cell growth and survival following treatment with N—[(S)-2-Fluoro-α-methyl-4-biphenylacetyl]-[L-(4-phenylphenyl)alanine]-N-(2,2,6,6-tetramethyl-4-piperidinyl)amide (GCBH-110=B1031; (S)-Fmba-L-Bip-Atmp) were measured by a rapid colorimetric assay based on the tetrazolium salt MTT (3-(4,5-dimethylthiazol-2-yl)-2,5-diphenyl tetrazolium bromide) (Mosmann, J. Immunol. Methods 65: 55-63, 1983, with minor modifications).
Briefly, approximately 1,000-5,000 cancer cells from 15 different cancer cells lines were plated in 100 μL of growth medium in 96-well flat-bottomed microtiter plates. Cells were incubated overnight to allow recovery. Compounds to be tested were added to the cells in triplicate in a range of concentrations and the cells were incubated at 37° C., 5% CO2, with 100% humidity. Control cells were treated in the same way without antagonists. […] Plates were incubated for 4 days, allowing sufficient time for cell replication and compound-induced cell death to occur. On day 5, 25 μL of a 2 mg/mL solution of MTT (Sigma) dissolved in RMPI-1640 was added to each well. The plate was incubated for 4 h at 37° C. The supernatant liquid was removed and the blue formazan complex was dissolved by adding 100 μL of 0.02 N HCl in 75% isopropanol to all wells. Absorbance was immediately determined using a scanning multiwell plate reader.

[2] = Solubility of flurbiprofen analog compounds; type: physicochemical; details: medium in which the compound is soluble, Table 5
[3] = tested on: H2122 lung carcinoma solid tumor xenograft; assay: H2122 lung carcinoma xenograft in nude mice; type: in vivo, athymic nude mice; details: 5 mg/kg daily intraperitoneal, from day 7 after implantation, over the 25 days of treatment, FIG. 11
Procedure: The efficacy of the treatment method was examined for both lung carcinoma-cell tumors and pancreatic-cell tumors implanted in athymic mice, according to the method detailed in Example 3. In the first study, mice injected with lung-carcinoma cells were treated, seven days after cancer-cell implantation, by daily injection of 5 mg/kg body weight of one of three different flurbiprofen analog compounds: B1005 (GCBH 104); B1020 (GCBH 108) and B1031 (GCBH 110). Tumor size was measured by calipers at the days indicated in FIG. 11, with final tumor weight and volume being determined by extracting the tumor from the sacrificed animals.
Compounds having high in vitro cytotoxic activity were tested against implanted tumors in vivo. In one study, athymic nude mice were implanted subcutaneously with suspensions of approximately 2 million H2122 lung carcinoma cells, in Matrigel suspension. On the seventh day after tumor implantation, groups of 5 mice bearing implants were injected intraperitoneally with the compounds being tested at 5 mg/kg/every day; control animals were injected with an equal volume of isotonic saline. […] Tumor size was measured with a caliper three times per week. Tumor volume was calculated by the formula: Volume (cc)=3.14×(length)×(width)^2/6
At autopsy, tumors were removed and weighed. Tumor inhibition was calculated on both weight and measurement basis.

[4] = tested on: HT-29 colon cancer cells; assay: Loss in cell viability, HT-29 colon cancer cells; type: cell-based; details: Homo sapiens; HT-29 colon cancer cell, FIG. 6A
Procedure: FIGS. 6A and 6B show the loss in cell viability in HT-29 colon cancer cells, in response to increasing concentrations of GH 502 (GCBH 118) (FIG. 6A), and the effect of various treatments, including increasing concentration of GH501 (GCBH 110) on U251 malignant glioma cells and BTIC EF12 brain tumor initiating stem cells (FIG. 6B).
The study shown in FIG. 6A examined the effect of GCBH-118 (GH502) on an HT-29 colon cancer cell, showing an IC50 value of about 1 μM. […] The graph indicates an IC50 value for the B1031 compound against the U251 brain cancer cell line of between 2 and 10 μM.

SMILES	IC50 ([1]; Homo sapiens, NCI-H2122)	Solubility [2]	IC50 [1]	inhibition of growth of the lung carcinoma cell line H2122 tumor [3]	IC50 [4]
CC(C(=O)N[C@@H](Cc1ccc(OCc2c(Cl)cccc2Cl)cc1)C(=O)NC1CC(C)(C)NC(C)(C)C1)c1ccc(-c2ccccc2)c(F)c1 (stereo partly drawn) [GCBH-100, N—[(R,S)-2-Fluoro-α-methyl-4-biphenylacetyl]-[O-(2,6,dichlorobenzyl)-L-tyrosine]-N-(2,2,6,6-tetramethyl-4-piperidinyl)amide]	4000 nM	50% DMSO			
CC(C(=O)N[C@@H](Cc1ccc(OCc2c(Cl)cccc2Cl)cc1)C(=O)NCCCN1CCN(C)CC1)c1ccc(-c2ccccc2)c(F)c1 (stereo partly drawn) [GCBH-102, N—[(R,S)-2-Fluoro-α-methyl-4-biphenylacetyl]-[O-(2,6,dichlorobenzyl)-L-tyrosine]-N-[3-(4-methyl-1-piperizinyl)propyl]amide]		20% DMSO	8000 nM		
CC(C(=O)N[C@@H](Cc1ccc(-c2ccccc2)cc1)C(=O)NC1CC(C)(C)NC(C)(C)C1)c1ccc(-c2ccccc2)c(F)c1 (stereo partly drawn) [GCBH-104, N—[(R,S)-2-Fluoro-α-methyl-4-biphenylacetyl]-[L-(4-phenylphenyl)alanine]-N-(2,2,6,6-tetramethyl-4-piperidinyl)amide]				74%	
CC(C(=O)N[C@H](C(=O)NC1CC(C)(C)NC(C)(C)C1)C(c1ccccc1)c1ccccc1)c1ccc(-c2ccccc2)c(F)c1 (some centres unmarked) [GCBH-106]	1200 nM	50% DMSO			
CC(C(=O)N[C@@H](Cc1ccc(OCc2c(Cl)cccc2Cl)cc1)C(=O)NC1CC(C)(C)NC(C)(C)C1)c1ccc(-c2ccccc2)c(F)c1 (stereo partly drawn) [GCBH-112, N—[(R,S)-2-Fluoro-α-methyl-4-biphenylacetyl]-[O-(2,6,dichlorobenzyl)-L-tyrosine]-N-(2,2,6,6-tetramethyl-4-piperidinyl)amide]		50% DMSO	1600 nM		
CC(C(=O)N[C@@H](Cc1csc2ccccc12)C(=O)NC1CC(C)(C)NC(C)(C)C1)c1ccc(-c2ccccc2)c(F)c1 (stereo partly drawn) [GCBH-114, N—[(R,S)-2-Fluoro-α-methyl-4-biphenylacetyl]-(L-3-benzothienylalanine)-N-(2,2,6,6-tetramethyl-4-piperidinyl)amide]	1200 nM	50% DMSO			
CC(C(=O)N[C@@H](CC1CCCCC1)C(=O)NC1CC(C)(C)NC(C)(C)C1)c1ccc(-c2ccccc2)c(F)c1 (stereo partly drawn) [GCBH-116, N—[(R,S)-2-Fluoro-α-methyl-4-biphenylacetyl]-(β-cyclohexyl-L-alanine)-N-(2,2,6,6-tetramethyl-4-piperidinyl)amide]	2300 nM	20% DMSO			
CC(C(=O)N[C@@H](Cc1cccnc1)C(=O)NC1CC(C)(C)NC(C)(C)C1)c1ccc(-c2ccccc2)c(F)c1 (stereo partly drawn) [GCBH-118, N—[(R,S)-2-Fluoro-α-methyl-4-biphenylacetyl]-(β-3-pyridyl-L-alanine)-N-(2,2,6,6-tetramethyl-4-piperidinyl)amide]	1400 nM				~1000 nM
C[C@H](C(=O)NC(CC(=O)NC1CC(C)(C)NC(C)(C)C1)c1ccc(-c2ccccc2)cc1)c1ccc(-c2ccccc2)c(F)c1 (stereo partly drawn) [GCBH-120, N—[(S)-2-Fluoro-α-methyl-4-biphenylacetyl]-[R,S,-β-(p-biphenyl)-β-alanine]-N-(2,2,6,6-tetramethyl-4-piperidinyl)amide]	5400 nM	50% DMSO			
C[C@H](C(=O)N[C@@H](Cc1ccc(C(F)(F)F)cc1)C(=O)NC1CC(C)(C)NC(C)(C)C1)c1ccc(-c2ccccc2)c(F)c1 [GCBH-122, N—[(S)-2-Fluoro-α-methyl-4-biphenylacetyl]-[(4-trifluoromethyl)-L-phenylalanine]-N-(2,2,6,6-tetramethyl-4-piperidinyl)amide]	2100 nM	50% DMSO			
C[C@H](C(=O)N[C@@H](Cc1ccc(F)cc1)C(=O)NC1CC(C)(C)NC(C)(C)C1)c1ccc(-c2ccccc2)c(F)c1 [GCBH-124, N—[(S)-2-Fluoro-α-methyl-4-biphenylacetyl]-[(4-fluoro)-L-phenylalanine]-N-(2,2,6,6-tetramethyl-4-piperidinyl)amide]	2500 nM	20% DMSO			
C[C@H](C(=O)N[C@@H](Cc1ccc(N(CCCl)CCCl)cc1)C(=O)NC1CC(C)(C)NC(C)(C)C1)c1ccc(-c2ccccc2)c(F)c1 [GCBH-126]	3800 nM	20% DMSO			
